The results in this text go back to patent publication US20240368096A1 (Enanta Pharmaceuticals, Inc., priority 2022, published 2024).

One experiment has as its system HBV. The experiment can be described thus: HBV infection in HepG2-NTCP cells (HBeAg AlphaLISA in supernatants). Particulars: HBV infection of HepG2-NTCP cells; HBeAg in supernatants at day 8 post infection; read-out: Cellular EC50. Format: cell-based. The gist of the method:
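HepG2-NTCP A3 cells were pre-incubated 2 h with 3-fold serially diluted compounds, then infected with HBV at 2000 GE/cell with 4% PEG (0.5% DMSO final). After washing on day 1, cells stayed in 2.5% DMSO medium; supernatant HBeAg measured by AlphaLISA on day 8, EC50 versus DMSO controls.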
Background: In Alpha technology, singlet oxygen from a donor bead excites a nearby acceptor bead.
Take `Cc1ccc(C(=O)O)c(C)c1-c1cc2c(cc1Cl)N(c1ccccc1)C[C@@H](C1CCCCC1)N(C)S2(=O)=O` [Example 147, 3-((3R)-7-chloro-3-cyclohexyl-2-methyl-1,1-dioxido-5-phenyl-2,3,4,5-tetrahydrobenzo[f][1,2,5]thiadiazepin-8-yl)-2,4-dimethylbenzoic acid]: the EC50 is over 1000 nM.

The experiment is the same for the next values; noted with them: Hepatitis B virus, 192 h; HBV infection of HepG2-NTCP cells; HBeAg in supernatants at day 8 post infection; read-out: Cellular EC50.
For `CN1[C@H](C2CCC2)CN(c2ccccc2)c2cc(Cl)c(-c3ccc([N+](=O)[O-])c(C(=O)O)c3)cc2S1(=O)=O` [Example 203], the EC50 was under 100 nM. Take `Cn1nc(-c2cc3c(cc2F)N(c2ccccc2)CC2CC4(CC4)CN2S3(=O)=O)cc1C(=O)O` (stereo not drawn) [Example 8]: the concentration giving a half-maximal response (EC50) was over 1000 nM. On the same count and under the same terms, then `CN1[C@H](C2CCCCC2)CN(c2ccccc2)c2cc(Oc3cc(F)cc(F)c3)c(-c3ccc(F)c(C(=O)O)c3)cc2S1(=O)=O` [Example 405], with under 100 nM. `COc1cc(F)cc(Oc2cc3c(cc2-c2ccc(F)c(C(=O)O)c2)S(=O)(=O)N(C)[C@H](C2CCCCC2)CN3c2ccccc2)c1` [Example 409]: the EC50 was under 100 nM. `CN1[C@H](C2CCCCC2)CN(c2ccccc2)c2cc(Cl)c(-c3cc(Cl)c(C(=O)O)s3)cc2S1(=O)=O` [Example 117]: the EC50 was under 100 nM.

Turning to `CN1[C@H](C2CCCCC2)CN(c2ccccc2)c2cc(OC3CC4(CCC4)C3)c(-c3cc(F)c(C(=O)O)s3)cc2S1(=O)=O` [Example 484], the concentration giving a half-maximal response (EC50) fell in the range of 100 to 1000 nM. Same read-out and setting: the result for `CCCC[C@@H]1CN(c2ccccc2)c2cc(Oc3ccccc3C(F)(F)F)c(-c3ccc(F)c(C(=O)O)c3)cc2S(=O)(=O)N1C` [Example 419] reads under 100 nM; that for `COCCOCCOc1cc2c(cc1-c1cc(F)c(C(=O)O)s1)S(=O)(=O)N(C)[C@H](C1CCCCC1)CN2c1ccccc1` [Example 498], under 100 nM. On the same count and under the same terms, then `COC(=O)c1noc2ccc(-c3cc4c(cc3Cl)N(c3ccccc3)C[C@@H](CC(C)C)N(C)S4(=O)=O)cc12` [Example 182], with 100 to 1000 nM; and `CN1[C@H](C2CCCCC2)CN(c2ccccc2)c2cc(OCc3ncco3)c(-c3ccc(F)c(C(=O)O)c3)cc2S1(=O)=O` [Example 344], with under 100 nM. As to `CN1[C@H](C2CCCCC2)CN(c2ccccc2)c2cc(Cl)c(-c3cc(NC(=O)OCC(C)(C)C)c(C(=O)O)s3)cc2S1(=O)=O` [Example 255], the concentration for a half-maximal effect (EC50) was under 100 nM. As for `CN1[C@H](C2CCCCC2)CN(c2ccccc2)c2cc(Oc3cccc(F)c3F)c(-c3ccc(F)c(C(=O)O)c3)cc2S1(=O)=O` [Example 402], the EC50 is under 100 nM.

Take `CN1[C@H](C2CCCCC2)CN(c2ccc(C(F)(F)F)cc2F)c2cc(Cl)c(-c3ccc(F)c(C(=O)O)c3)cc2S1(=O)=O` [Example 302]: the EC50 was 100 to 1000 nM. The same measure, in the same setting: then `CN1[C@@H](Cc2ccc(Cl)cc2)CN(c2ccccc2)c2cc(F)c(-c3ccc(F)c(C(=O)O)c3)cc2S1(=O)=O` [Example 2], with over 1000 nM; and `CN1[C@H](C2CCCCC2)CN(c2ccccc2)c2cc(Cl)c(-c3cc4c(c(C(=O)O)c3)OC(F)(F)O4)cc2S1(=O)=O` [Example 154, (R)-6-(7-chloro-3-cyclohexyl-2-methyl-1,1-dioxido-5-phenyl-2,3,4,5-tetrahydrobenzo[f][1,2,5]thiadiazepin-8-yl)-2,2-difluorobenzo[d][1,3]dioxole-4-carboxylic acid], with 100 to 1000 nM.

`CN1[C@H](C2CCCCC2)CN(c2ccccc2)c2cc(Cl)c(-c3ccc(Cl)c(C(=O)O)c3)cc2S1(=O)=O` [Example 26]: the 50% effective concentration (EC50) was under 100 nM.

Consider `CN1[C@H](C2CCCCC2)CN(c2ccccc2)c2cc(C#Cc3ccsc3)c(-c3ccc(F)c(C(=O)O)c3)cc2S1(=O)=O` [Example 602, (R)-5-(3-cyclohexyl-2-methyl-1,1-dioxido-5-phenyl-7-(thiophen-3-ylethynyl)-2,3,4,5-tetrahydrobenzo[f][1,2,5]thiadiazepin-8-yl)-2-fluorobenzoic acid], for which the EC50 is under 100 nM. In the case of `CN1[C@H](C2CCCCC2)CN(c2ccncc2)c2cc(Cl)c(-c3ccc(F)c(C(=O)O)c3)cc2S1(=O)=O` [Example 283], the concentration for a half-maximal effect (EC50) was over 1000 nM. Turning to `CC(=O)N1CCC(Oc2cc3c(cc2-c2ccc(F)c(C(=O)O)c2)S(=O)(=O)N(C)[C@H](C2CCCCC2)CN3c2ccccc2)CC1` [Example 395, (R)-5-(7-((1-acetylpiperidin-4-yl)oxy)-3-cyclohexyl-2-methyl-1,1-dioxido-5-phenyl-2,3,4,5-tetrahydrobenzo[f][1,2,5]thiadiazepin-8-yl)-2-fluorobenzoic acid], the EC50 is 100 to 1000 nM. Same read-out and setting: then `CN1[C@H](C2CCCCC2)CN(c2ccccc2)c2cc(O[C@H]3C[C@H](C#N)C3)c(-c3ccc(F)c(C(=O)O)c3)cc2S1(=O)=O` [Example 384], with 100 to 1000 nM. The same measure, in the same setting: then `CN1[C@H](C2CCCCC2)CN(c2ccccc2)c2cc(Cl)c(-c3ccc(NC(=O)OCc4ccccc4)c(C(=O)O)c3)cc2S1(=O)=O` [Example 236], with under 100 nM; and `CN1[C@H](C2CC(F)(F)C2)CN(c2ccccc2)c2cc(Cl)c(-c3ccc(Cl)c(C(=O)O)c3)cc2S1(=O)=O` [Example 32], with 100 to 1000 nM; and `CN1[C@H](C2CCCCC2)CN(c2ccccc2)c2cc(OC3CCCC3)c(-c3ccc(F)c(C(=O)O)c3)cc2S1(=O)=O` [Example 373], with under 100 nM.

Consider `CCCCCCN1C[C@@H](C2CCCCC2)N(C)S(=O)(=O)c2cc(-c3ccc(F)c(C(=O)O)c3)c(Cl)cc21` [Example 324], for which the 50% effective concentration (EC50) is 100 to 1000 nM.

`CN1[C@H](C2CCCCC2)CN(c2cccc(C(F)(F)F)c2)c2cc(Cl)c(-c3ccc(F)c(C(=O)O)c3)cc2S1(=O)=O` [Example 301]: the EC50 was 100 to 1000 nM. In the case of `CC(=O)Nc1ccc(-c2cc3c(cc2Cl)N(c2ccccc2)C[C@@H](C2CCCCC2)N(C)S3(=O)=O)cc1C(=O)O` [Example 229], the concentration for a half-maximal effect (EC50) was under 100 nM. On the same count and under the same terms, then `Cc1cc(COc2cc3c(cc2-c2cc(F)c(C(=O)O)s2)S(=O)(=O)N(C)[C@H](C2CCCCC2)CN3c2ccccc2)cs1` [Example 493], with 100 to 1000 nM. On the same count and under the same terms, then `CCCC[C@@H]1CN(c2ccccc2)c2cc(Nc3ccccc3F)c(-c3cc(F)c(F)c(C(=O)O)c3)cc2S(=O)(=O)N1C` [Example 560, (R)-5-(3-butyl-7-((2-fluorophenyl)amino)-2-methyl-1,1-dioxido-5-phenyl-2,3,4,5-tetrahydrobenzo[f][1,2,5]thiadiazepin-8-yl)-2,3-difluorobenzoic acid], with under 100 nM; and `CN1[C@H](C2CC=CCO2)CN(c2ccccc2)c2cc(Cl)c(-c3ccc(F)c(C(=O)O)c3)cc2S1(=O)=O` (single isomer, unassigned) [Example 103], with 100 to 1000 nM; and `CN1C(CC(F)(F)F)CN(c2ccccc2)c2cc(Cl)c(-c3ccc(F)c(C(=O)O)c3)cc2S1(=O)=O` (stereo not drawn) [Example 69], with over 1000 nM. Consider `Cc1sccc1COc1cc2c(cc1-c1ccc(F)c(C(=O)O)c1)S(=O)(=O)N(C)[C@H](C1CCCCC1)CN2c1ccccc1` [Example 339], for which the EC50 was under 100 nM. On to `CN1[C@H](C2CCCCC2)CNc2cc(C3CCC3)c(-c3ccc(F)c(C(=O)O)c3)cc2S1(=O)=O` [Example 586], for which the concentration for a half-maximal effect (EC50) is 100 to 1000 nM.

Turning to `CN1[C@H](C2CCCCC2)CN(c2ccccc2)c2cc(Cl)c(-c3cc(NC(=O)OCCC(F)(F)F)c(C(=O)O)s3)cc2S1(=O)=O` [Example 245], the EC50 lay within 100 to 1000 nM. On the same count and under the same terms, then `CN1[C@H](C(C)(C)C)CN(c2ccccc2)c2cc(Cl)c(-c3ccc(F)c(C(=O)O)c3)cc2S1(=O)=O` [Example 85, (R)-5-(3-(tert-butyl)-7-chloro-2-methyl-1,1-dioxido-5-phenyl-2,3,4,5-tetrahydrobenzo[f][1,2,5]thiadiazepin-8-yl)-2-fluorobenzoic acid], with under 100 nM; and `CN1[C@H](C2CCCCC2)CN(c2ccccc2)c2cc(OCc3ccco3)c(-c3ccc(F)c(C(=O)O)c3)cc2S1(=O)=O` [Example 334], with under 100 nM. As for `CCO[C@H](C)[C@@H]1CN(c2ccccc2)c2cc(Cl)c(-c3ccc(F)c(C(=O)O)c3)cc2S(=O)(=O)N1C` [Example 92], the EC50 was in the range of 100 to 1000 nM.

With `CN1C[C@@H](C2CCCCC2)N(C)S(=O)(=O)c2cc(-c3ccc(F)c(C(=O)O)c3)c(Cl)cc21` [Example 582, (R)-5-(7-chloro-3-cyclohexyl-2,5-dimethyl-1,1-dioxido-2,3,4,5-tetrahydrobenzo[f][1,2,5]thiadiazepin-8-yl)-2-fluorobenzoic acid], the EC50 was 100 to 1000 nM. For the molecule `CN1[C@H](C2CCCCC2)CN(c2ccccc2)c2cc(Cl)c(-c3cc(NC(=O)OC(C)(C)C)c(C(=O)O)s3)cc2S1(=O)=O` [Example 238, (R)-3-((tert-butoxycarbonyl)amino)-5-(7-chloro-3-cyclohexyl-2-methyl-1,1-dioxido-5-phenyl-2,3,4,5-tetrahydrobenzo[f][1,2,5]thiadiazepin-8-yl)thiophene-2-carboxylic acid], the EC50 was 100 to 1000 nM.

Consider `CN1[C@H](C2CCCCC2)CN(c2ccccc2)c2cc(Cl)c(-c3ccc(F)c(S(N)(=O)=O)c3)cc2S1(=O)=O` [Example 199], for which the EC50 lay in the range of 100 to 1000 nM. On the same count and under the same terms, then `CC(C)C[C@@H]1CN(c2ccccc2)c2cc(Cl)c(-c3ccc([N+](=O)[O-])c(C(=O)O)c3)cc2S(=O)(=O)N1C` [Example 183], with under 100 nM; and `CC(C)C[C@@H]1CN(c2ccccc2)c2cc(N3CCCCC3)c(-c3ccc(Cl)c(C(=O)O)c3)cc2S(=O)(=O)N1C` [Example 552], with under 100 nM; and `CN1[C@H](C2CCCCC2)CN(c2ccccc2)c2cc(Cl)c(-c3cc(NC(=O)OCC4CC4)c(C(=O)O)s3)cc2S1(=O)=O` [Example 252], with under 100 nM. Same read-out and setting: the result for `CN1[C@H](C2CCCCC2)CN(c2cccc(OCC(F)(F)F)c2)c2cc(Cl)c(-c3ccc(F)c(C(=O)O)c3)cc2S1(=O)=O` [Example 313] reads under 100 nM; that for `CN1[C@H](CC2CCC2)CN(c2ccccc2)c2cc(Cl)c(-c3ccc(Cl)c(C(=O)O)c3)cc2S1(=O)=O` [Example 76], 100 to 1000 nM.

What is called EC50 is the concentration needed to bring the measured effect to its halfway point.
